Assay: xn = mol fraction of the nth substance listed
Conditions: Liquid, absorption in thin film, x2 = 0

CCCCCCCCn1cc[n+](C)c1.N#CC(=C=[N-])C#N [1-methyl-3-octylimidazolium tricyanomethanide] + O=C=O
Conditions	binary diffusion coefficient [m2/s]
298.15 K, 94 kPa	1.5e-10
298.15 K, 194 kPa	1.9e-10
298.15 K, 293 kPa	1.8e-10
298.15 K, 393 kPa	2e-10
298.15 K, 593 kPa	2e-10
308.15 K, 194 kPa	2.3e-10
308.15 K, 294 kPa	2.4e-10
308.15 K, 393 kPa	2.5e-10
308.15 K, 493 kPa	2.5e-10
308.15 K, 593 kPa	2.5e-10
308.15 K, 693 kPa	2.7e-10
308.15 K, 793 kPa	2.7e-10
308.15 K, 893 kPa	3e-10
308.15 K, 992 kPa	3.1e-10
308.15 K, 1093 kPa	2.7e-10
308.15 K, 1193 kPa	2.5e-10
308.15 K, 1293 kPa	3.2e-10
308.15 K, 1392 kPa	3.3e-10
308.15 K, 1492 kPa	3.5e-10
308.15 K, 1593 kPa	3.4e-10
308.15 K, 1693 kPa	3.8e-10
308.15 K, 1793 kPa	4e-10
308.15 K, 1892 kPa	3.9e-10
308.15 K, 1993 kPa	3.9e-10
323.15 K, 94 kPa	3.2e-10
323.15 K, 194 kPa	3.4e-10
323.15 K, 293 kPa	3.5e-10
323.15 K, 393 kPa	3.3e-10
323.15 K, 493 kPa	3.3e-10
323.15 K, 593 kPa	3.6e-10
323.15 K, 693 kPa	3.9e-10
323.15 K, 793 kPa	4e-10
323.15 K, 893 kPa	3.9e-10
323.15 K, 992 kPa	3.9e-10
323.15 K, 1093 kPa	3.8e-10
323.15 K, 1193 kPa	3.6e-10
323.15 K, 1292 kPa	3.9e-10
323.15 K, 1393 kPa	4e-10
323.15 K, 1493 kPa	4.2e-10
323.15 K, 1593 kPa	4.1e-10
323.15 K, 1692 kPa	4.6e-10
323.15 K, 1793 kPa	3.9e-10
323.15 K, 1892 kPa	4.5e-10
323.15 K, 1993 kPa	4.4e-10
338.25 K, 94 kPa	4.3e-10
338.25 K, 194 kPa	4.1e-10
338.25 K, 294 kPa	4.5e-10
338.25 K, 394 kPa	4.4e-10
338.25 K, 494 kPa	4.2e-10
338.25 K, 593 kPa	4.8e-10
338.25 K, 692 kPa	4.3e-10
338.25 K, 794 kPa	4.7e-10
338.25 K, 892 kPa	4.2e-10
338.25 K, 993 kPa	3.8e-10
338.25 K, 1093 kPa	5e-10
338.25 K, 1193 kPa	5.1e-10
338.25 K, 1292 kPa	5e-10
338.25 K, 1392 kPa	4.9e-10
338.25 K, 1493 kPa	5e-10
338.25 K, 1692 kPa	6e-10
338.25 K, 1793 kPa	5.9e-10
338.25 K, 1892 kPa	5.5e-10
338.25 K, 1993 kPa	5.2e-10
353.25 K, 494 kPa	5.7e-10
353.25 K, 594 kPa	5.5e-10
353.25 K, 993 kPa	6e-10
353.25 K, 1093 kPa	6.7e-10
353.25 K, 1193 kPa	5.1e-10
353.25 K, 1293 kPa	4.7e-10
353.25 K, 1392 kPa	6.5e-10
353.25 K, 1493 kPa	5.6e-10
353.25 K, 1793 kPa	7.6e-10
353.25 K, 1893 kPa	5.8e-10

CCCCCC[n+]1ccn(C)c1.N#C[C-](C#N)C#N [3-hexyl-1-methylimidazolium tricyanomethanide] + O=C=O
Conditions	binary diffusion coefficient [m2/s]
298.15 K, 94 kPa	2e-10
298.15 K, 194 kPa	1.8e-10
298.15 K, 293 kPa	1.8e-10
298.15 K, 393 kPa	2e-10
298.15 K, 493 kPa	2e-10
298.15 K, 693 kPa	2.4e-10
298.15 K, 793 kPa	2.4e-10
298.15 K, 893 kPa	2.4e-10
298.15 K, 993 kPa	2.2e-10
298.15 K, 1193 kPa	3e-10
298.15 K, 1293 kPa	3.2e-10
298.15 K, 1393 kPa	2.9e-10
298.15 K, 1493 kPa	3e-10
298.15 K, 1693 kPa	3.1e-10
298.15 K, 1793 kPa	3.3e-10
308.15 K, 101 kPa	2.6e-10
308.15 K, 198 kPa	2.4e-10
308.15 K, 297 kPa	2.5e-10
308.15 K, 394 kPa	2.5e-10
308.15 K, 494 kPa	2.5e-10
308.15 K, 593 kPa	2.5e-10
308.15 K, 692 kPa	2.7e-10
308.15 K, 793 kPa	2.2e-10
308.15 K, 892 kPa	3.3e-10
308.15 K, 993 kPa	2.9e-10
308.15 K, 1093 kPa	3.1e-10
308.15 K, 1192 kPa	3.3e-10
308.15 K, 1292 kPa	3.3e-10
308.15 K, 1393 kPa	3.4e-10
308.15 K, 1492 kPa	3.4e-10
308.15 K, 1592 kPa	4e-10
308.15 K, 1693 kPa	3.8e-10
308.15 K, 1793 kPa	4.1e-10
308.15 K, 1893 kPa	4e-10
308.15 K, 1993 kPa	4.1e-10
323.15 K, 94 kPa	2.8e-10
323.15 K, 194 kPa	4.1e-10
323.15 K, 293 kPa	3.1e-10
323.15 K, 393 kPa	3.5e-10
323.15 K, 493 kPa	3.9e-10
323.15 K, 594 kPa	4.2e-10
323.15 K, 693 kPa	3.7e-10
323.15 K, 793 kPa	3.7e-10
323.15 K, 893 kPa	3.9e-10
323.15 K, 993 kPa	4e-10
323.15 K, 1093 kPa	3.8e-10
323.15 K, 1193 kPa	4e-10
323.15 K, 1293 kPa	4e-10
323.15 K, 1393 kPa	4.4e-10
323.15 K, 1493 kPa	4.3e-10
323.15 K, 1593 kPa	4.2e-10
323.15 K, 1693 kPa	4.7e-10
323.15 K, 1793 kPa	4.5e-10
323.15 K, 1893 kPa	3.7e-10
323.15 K, 1993 kPa	5.4e-10
338.25 K, 194 kPa	5.1e-10
338.25 K, 294 kPa	3.7e-10
338.25 K, 393 kPa	4.9e-10
338.25 K, 494 kPa	6.7e-10
338.25 K, 693 kPa	4.9e-10
338.25 K, 793 kPa	4.8e-10
338.25 K, 893 kPa	5.8e-10
338.25 K, 993 kPa	5.3e-10
338.25 K, 1092 kPa	5.3e-10
338.25 K, 1193 kPa	5.3e-10
338.25 K, 1292 kPa	5.6e-10
338.25 K, 1393 kPa	4.8e-10
338.25 K, 1493 kPa	5.5e-10
338.25 K, 1592 kPa	4.9e-10
338.25 K, 1693 kPa	6.6e-10
338.25 K, 1792 kPa	6e-10
338.25 K, 1893 kPa	6.1e-10
338.25 K, 1993 kPa	6.3e-10
353.25 K, 594 kPa	6.4e-10
353.25 K, 694 kPa	7.1e-10
353.25 K, 893 kPa	6e-10
353.25 K, 993 kPa	6.5e-10
353.25 K, 1193 kPa	6.3e-10
353.25 K, 1293 kPa	6.8e-10
353.25 K, 1393 kPa	6.3e-10
353.25 K, 1593 kPa	5.3e-10
353.25 K, 1693 kPa	7.6e-10
353.25 K, 1793 kPa	7.7e-10
353.25 K, 1893 kPa	7.7e-10
353.25 K, 1993 kPa	6.7e-10
